PMC10287183 (Antiviral Research, 2023)
Where two headings read alike, the source gives them in different places.

How the values were obtained:
in vitro = details: human
SARS-CoV2 D614G = assay type: cell-based, SARS-CoV-2; details: for EC90: read-out: EC90 (mean ± SD)
SARS-CoV-2 D614G = assay type: cell-based

Row | Compound | CC50 (in vitro) [µM] | Highest % of Virus Inhibition (SARS-CoV2 D614G) [%] | EC90 (SARS-CoV2 D614G) [µM] | virus entry step (SARS-CoV-2 D614G) | Highest % of Virus Inhibition (SARS-CoV2 D614G; […], highest concentration tested 100 μM (CLIK-148 60 μM)) [%] | CC50 (Huh7-hACE2) [µM]
1 | CCN(CCO)CCCC(C)Nc1ccnc2cc(Cl)ccc12 (centres unmarked) [Hydroxychloroquin, Hydroxychloroquine] | > 100 | 98 | 18.9 ± 2.3 |  |  | 
2 | O=[N+]([O-])c1ccc(O)c2ncccc12 [Nitroxoline, nitroxoline] | > 100 |  | 9.9 ± 8 | inhibited this step similarly to HCQ |  | 
3 | CLIK-148 [CLIK 148] |  |  |  |  | 64 | > 100
